Assay [1] has as its system Synechococcus sp. HPPD "SEQ ID No. 5". Kind of assay: HPPD activity in presence of HPPD inhibitors (pI50, % inhibition). To be noted: for percentage of inhibition: 5.0 × 10^−6 M inhibitor, compared to activity in absence of inhibitor; for pI50: 2 mM HPP, 3 minutes incubation. It is filed as biochemical. The text has this:
(§1) In this content, pI50-value means the log value of the concentration of inhibitor necessary to inhibit 50% of the enzyme activity in molar concentration.

The subject of assay [2] is T1 tobacco plants carrying FMP38e. Kind of assay: Glasshouse response to bicyclopyrone, injury classes. In kind it is in vivo, Nicotiana tabacum. The note with it: 100 g AI/ha, 7 DAT. The text has this:
(§2) Seeds of wild type tobacco plants and T1 tobacco plants carrying the gene from Synechococcus sp. FMP38e coding for HPPD were sown on MS media (Murashige and Skoog 1964) supplemented with […] kanamycin. After 4 weeks, rooted green plantlets were transferred to soil and grown for 3 weeks in the glasshouse as described above then sprayed with a mixture containing bicyclopyrone (100 g AI/ha), ammonium sulfate and methyl ester raps oil. The plants were classified in two categories based on the phenotype developed in response to the herbicide seven days after the treatment. […] In this case, only plants containing at least one T-DNA were exposed to the herbicidal treatment.

The subject of the next assay is wild type tobacco plants. Described as above. The note with it: 100 g AI/ha, 7 DAT; line WT. In kind it is in vivo, Nicotiana tabacum.
Text: as §2

Assay [3] has as its target Synechococcus sp. HPPD "SEQ ID No. 5". Description: HPLC assay of HPPD activity, in vitro kinetic properties. It is filed as biochemical. Here is the method:
Km, Vmax, and kcat values for different HPPD enzyme preparations and Ki, K1=Kon, and K−1=Koff for different HPPD inhibitors were determined using a HPLC assay for measurements of HPPD activity. […] All assays were started by the addition of HPPD enzyme to the assay mixture and stopped at a series of times between 0 and 240 s by addition of 200 μl of the reaction mixture to reaction assay tubes containing 20 μl 10% perchloric acid. Precipitated protein was pelleted by a 5 minute centrifugation at 10,000 g. […] A standard set of concentrations of HGA were used to provide a standard curve in order to calibrate the 292 nm absorbance of the HGA peak versus HGA concentration.
For Km and Vmax value determinations the initial rates of the HPPD reaction at different substrate concentrations were determined from plots of HGA formed versus time and fitted to the Michaelis-Menten equation for unireactant enzymes using the ID Business Solutions Ltd. (idbs.com) XLfit software suite. For the determination of Ki, K1=Kon, and K=−1=Koff values the time-courses of the HPPD reaction at different inhibitor concentrations were fitted to the equations for Mechanism A, competitive inhibition, for tight-binding inhibitors (Cha, S. (1975) Tight-binding inhibitors-I. Kinetic behaviour. Biochemical Pharmacology 24, 2177-2185) using the ID Business Solutions Ltd. XLfit software suite
(§3) In below given table 1, “Km” (Michaelis-Menten constant) means the kinetic parameter that is used to characterise an enzyme, and it is defined as the concentration of substrate that permits half maximal rate of the reaction. Km is further defined as the substrate concentration at which the reaction rate reaches half of its maximum value (Vmax/2) where Vmax has the meaning of being the maximum velocity of the reaction.
(§4) Kon=K1 equals the association rate constant of the […] binding and Koff=K−1 equals the rate constant of the enzyme-inhibitor complex dissociation. Ki defines the inhibition constant.

Assay [4] addresses T1, Arabidopsis thaliana HPPD "SEQ ID No. 10" (Arabidopsis thaliana, UniProt P93836).
T1 construct: Preparation of Synechococcus sp; Ala + 6xHis (N); made in house; host or cells: E. coli K-12 BL21 (pQE30-AtHPPD)
T1 sequence (P93836 with tags, fused parts or gaps): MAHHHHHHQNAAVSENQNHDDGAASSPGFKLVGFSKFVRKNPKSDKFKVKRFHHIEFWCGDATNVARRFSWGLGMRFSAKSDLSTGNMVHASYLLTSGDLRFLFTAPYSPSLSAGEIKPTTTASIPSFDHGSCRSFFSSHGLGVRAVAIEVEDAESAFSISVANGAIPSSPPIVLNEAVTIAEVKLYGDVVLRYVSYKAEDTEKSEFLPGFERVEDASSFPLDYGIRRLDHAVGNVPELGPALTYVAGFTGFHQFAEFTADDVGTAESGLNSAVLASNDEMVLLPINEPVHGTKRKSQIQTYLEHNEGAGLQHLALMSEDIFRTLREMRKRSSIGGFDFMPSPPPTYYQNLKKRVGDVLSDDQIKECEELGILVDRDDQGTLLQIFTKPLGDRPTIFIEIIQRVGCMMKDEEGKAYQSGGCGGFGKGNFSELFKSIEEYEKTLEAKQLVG
The description is as above. It is filed as biochemical. To be noted: substrate HPP varied between 10 and 400 μM. On the procedure:
Km, Vmax, and kcat values for different HPPD enzyme preparations and Ki, K1=Kon, and K−1=Koff for different HPPD inhibitors were determined using a HPLC assay for measurements of HPPD activity. […] All assays were started by the addition of HPPD enzyme to the assay mixture and stopped at a series of times between 0 and 240 s by addition of 200 μl of the reaction mixture to reaction assay tubes containing 20 μl 10% perchloric acid. Precipitated protein was pelleted by a 5 minute centrifugation at 10,000 g.
For Km and Vmax value determinations the initial rates of the HPPD reaction at different substrate concentrations were determined from plots of HGA formed versus time and fitted to the Michaelis-Menten equation for unireactant enzymes using the ID Business Solutions Ltd. (idbs.com) XLfit software suite.
as §3, §4

In the next assay the test system is wild-type soybean shoots. Description: Soybean shoot greening under isoxaflutole selection. In kind it is in vivo. To be noted: same amount of isoxaflutole. The text has this:
(§5) Soybean transformation is achieved using methods well known in the art, such as the one described using the Agrobacterium tumefaciens mediated transformation soybean half-seed explants described by Paz et al. (2006, Plant cell Rep. 25:206). Transformants were identified using Isoxaflutole as selection marker. The appearance of green shoots was observed, and documented as an indicator of tolerance to the herbicide isoxaflutole. […] Tolerant green shoots were transferred to rooting media or grafted. Rooted plantlets are transferred to the glasshouse after an acclimation period.

The subject of assay [5] is transgenic soybean shoots (FMP38). The assay is described as above. In kind it is in vivo. The note with it: isoxaflutole as selection marker.
Text: as §5

Assay [6] has as its target T1, Arabidopsis thaliana HPPD "SEQ ID No. 10". Description: HPPD activity in presence of HPPD inhibitors (pI50, % inhibition). In kind it is biochemical.
Text: as §1

[7] abbreviates: substrate HPP varied between 10 and 400 μM.

Regarding `Cc1ccc(C(=O)COc2c(C(=O)c3ccc(Cl)c(C)c3Cl)c(C)nn2C)cc1` [Benzofenap], the percentage of inhibition in assay [1] is 31%.

`COCCOCc1nc(C(F)(F)F)ccc1C(=O)C1=C(O)C2CCC(C2)C1=O` (stereo not drawn) [Bicyclopyrone, 4-hydroxy-3-[[2-[(2-methoxyethoxy)methyl]-6-(trifluoromethyl)-3-pyridinyl]carbonyl]bicyclo[3.2.1]oct-3-en-2-one]: in assay [1], the pI50 is on record as 5.0 and the percentage of inhibition stood at 19%. Also, in assay [2] (line 34), the “% of tolerant plant” value is on record as 17%, the “Class I (injury: 0-30%)” value was found to be 59 and the “Class II (injury: 31-100%)” value is on record as 6. Further, in assay [2] (line 39), the “% of tolerant plant” value is recorded as 46%, the “Class I (injury: 0-30%)” value worked out at 100 and the “Class II (injury: 31-100%)” value is 48. In addition, in assay [2] (line 197), the “% of tolerant plant” value came out at 15%, the “Class I (injury: 0-30%)” value is listed as 89 and the “Class II (injury: 31-100%)” value worked out at 15. In the assay on wild type tobacco plants, the “% of tolerant plant” value was 0%, the “Class I (injury: 0-30%)” value is on record as 0 and the “Class II (injury: 31-100%)” value came out at 12.

Compound `CS(=O)(=O)c1cc(C(F)(F)F)ccc1C(=O)C(C#N)C(=O)C1CC1` (stereo not drawn) [Diketonitrile, 2-cyano-3-cyclopropyl-1-(2-methylsulphonyl-4-trifluoromethylphenyl)-propane-1,3-dione] returned a Ki in assay [3] (2 mM HPP) of 12 µM. In addition, in assay [1], the pI50 is given as 5.5 and the percentage of inhibition stood at 62%.

As for `O=C(O)C(=O)Cc1ccc(O)cc1` [HPP, para-hydroxyphenylpyruvate], in assay [3] (setting [7]), the Km amounted to 5.1 µM and the Vmax came to 1.2 µM. In assay [4], the Michaelis constant (Km) stood at 6.3 µM and the Vmax was 1.2 µM.

Regarding `CS(=O)(=O)c1cc(C(F)(F)F)ccc1C(=O)c1cnoc1C1CC1` [Isoxaflutole, (5-cyclopropyl-4-isoxazolyl)[2-(methylsulfonyl)-4-(trifluoromethyl)phenyl]methanone], in the assay on wild-type soybean shoots, the bleaching of shoots entry was “entirely bleached”. In assay [5], the “transgenic tested shoots showing normal greening” value was 0.6%.

`CS(=O)(=O)c1ccc(C(=O)C2C(=O)CCCC2=O)c([N+](=O)[O-])c1` [Mesotrione, 2-[4-(methylsulfonyl)-2-nitrobenzoyl]-1,3-cyclohexanedione]: in assay [1], the pI50 worked out at 5.4 and the percentage of inhibition turned out to be 47%.

On to `Cc1nn(C)c(O)c1C(=O)c1ccc(C(F)(F)F)cc1S(C)(=O)=O` [Pyrasulfotole], for which the pI50 came to 5.4 in assay [6] (2 mM HPP, 3 minutes incubation) and 4.7 in assay [1]. Moreover, the percentage of inhibition was 69% in assay [6] (5.0 × 10^−6 M inhibitor, compared to activity in absence of inhibitor) and 16% in assay [1].

For the compound `CS(=O)(=O)c1ccc(C(=O)C2C(=O)CCCC2=O)c(Cl)c1` [Sulcotrione, 2-[2-chloro-4-(methylsulfonyl)benzoyl]-1,3-cyclohexanedione], the percentage of inhibition in assay [1] was found to be 19%.

`CS(=O)(=O)c1ccc(C(=O)C2C(=O)CCCC2=O)c(Cl)c1COCC1CCCO1` (stereo not drawn) [Tefuryltrione, 2-[2-chloro-4-(methylsulfonyl)-3-[[(tetrahydro-2-furanyl)methoxy]methyl]benzoyl]-1,3-cyclohexanedione]: in assay [1], the pI50 is on record as 5.6 and the percentage of inhibition is on record as 72%.

The Ki is the dissociation constant of the complex between target and ligand, obtained from inhibition or displacement. The Km is the concentration of substrate that gives half-maximal velocity.

The values above are taken from US20150159167A1, “Plants Tolerant to HPPD Inhibitor Herbicides” (Bayer CropScience AG, priority 2009, published 2015).
